Test results published in US4902505A, “Chimeric peptides for neuropeptide delivery through the blood-brain barrier” (Alkermes, priority 1988, dated 1990).

What was measured:
[1] = tested on: isolated bovine brain microvessels; experiment: Radioreceptor assay (uptake) using isolated bovine brain microvessels; type: cell-based; settings: up to 60 minutes incubation at room temperature; FIG. 1
Method: Somatostatin was obtained from Peninsula Laboratories and tritiated by reductive methylation using ^3 H-sodium borohydride. […] The two compounds were coupled together using SPDP as described in Example 1. Bovine brain microvessels were isolated as described in Pardridge, et al., "Rapid Sequestration And Degradation Of Somatostatin Analogues By Isolated Brain Microvessels", (Journal of Neurochemistry, Vol. 44, No. 4, 1985, pp. 1178-1184).
^3 H-somatostatin was added to one set of microvessels for up to 60 minutes incubation at room temperature. In another set of incubations, the ^3 H-somatostatin-^125 I-insulin chimera was also added. […] The uptake of the free somatostatin likely represents nonspecific binding as described in the article mentioned above (Journal of Neurochemistry, Vol. 44, No. 4, 1985).
Previous studies have shown that the receptor-mediated endocytosis of peptides in the isolated brain microvessels is a reliable index of the in vivo blood-brain barrier receptor transport activity of peptides in vivo (see my previously-mentioned article in Endocrine Reviews, Vol. 7, No. 3, Aug. 1986).

blood-brain barrier = settings: general statement, no test described; cited from earlier work

Row | Molecule | change of uptake with time [1] | transport through the blood-brain barrier (blood-brain barrier)
1 | C[C@H](N)C(=O)NCC(=O)N[C@H]1CSSC[C@@H](C(=O)O)NC(=O)[C@H](CO)NC(=O)[C@H]([C@@H](C)O)NC(=O)[C@H](Cc2ccccc2)NC(=O)[C@H]([C@@H](C)O)NC(=O)[C@H](CCCCN)NC(=O)[C@H](Cc2c[nH]c3ccccc23)NC(=O)[C@H](Cc2ccccc2)NC(=O)[C@H](Cc2ccccc2)NC(=O)[C@H](CC(N)=O)NC(=O)[C@H](CCCCN)NC1=O [somatostatin] | no increase in time | not transported
2 | cationized albumin: bovine serum albumin covalently coupled with hexamethylene-diamine | – | enters the brain rapidly
